According to patent US4912116A, “Propiophenone derivatives for treatment of pollakiuria (frequency urination)” (Hokuriku Pharmaceutical Co., Ltd., priority 1986, dated 1990):

Test system: micturition reflex (rhythmic bladder contractions)
Test: Inhibition of micturition reflex (rhythmic bladder contractions) in anesthetized rats
Assay type: in vivo, male wister rats
Conditions: for Disappearance time (of bladder contractions): i.v., 3 rats, mean ± S.E.
Method: statistical analysis: Each data of Experiment 1-6 represents the mean±S.E. statistical analysis of the data was performed using student's t-test.
According to the method described by Morikawa et al. (Folia phamacol. japon.: 88,355 (1986), male wister rats weighing about 300 g (in case of intraduodenal administration, fasted 18-20 hours) were anesthetized with urethane (500 mg/kg, i.p.) and alpha-chloralose (50 mg/kg, i.p.), and fixed on their back.
Then, through a midline incision of the abdomen, the urinary bladder was exposed, provided with a small incision, and a balloon (capacity about 1 ml) was inserted into the bladder dome.
The balloon was connected to a pressure transducer and variations of inside pressure were recorded on a recorder.
Micturition reflex was elicited by elevating balloon pressure 10-20 cm H2 O.
In case of intravenous administration, the drug was administrated through a cannula inserted into the left jugular vein and, in case of intraduodenum administration, the drug was administrated through a cannula into the duodenum from outside the stomach.
In case of intravenous administration, the drug was evaluated by the dissappearance time of bladder contractions caused by micturition reflex.
In case of intraduodenal administration, the sum total of amplitude of bladder contractions caused by the micturition reflex was calculated during each five minutes at 5 min. before and 15, 30, 45, and 60 min. after the administration.
Then, the maximum inhibition rate was determined from one of the above judgment times compared with that of before the administration, and the dose which inhibited 50 percent of the sum total of amplitude of bladder contractions during five minutes (ED 50 value), was calculated from the graph.

**Q.** What does the source list for `CCc1ccc(C(=O)C(C)CN2CCCC2)cc1` (centres unmarked) [Compound 1]?
**A.** Disappearance time (of bladder contractions) (1 mg/kg): 1.1 ± 1.1 min; Disappearance time (of bladder contractions) (2 mg/kg): 2.3 ± 0.5 min; Disappearance time (of bladder contractions) (4 mg/kg): 7.1 ± 2.8 min; ED (3 min disappearance of contractions) (Rattus norvegicus, iv, read-out: ED3 (dose at which rhythmic bladder contractions disappeared in three (3) minutes)): 2.2 mg/kg; ED50 (Rattus norvegicus, intraduodenal administration, read-out: ED50 (dose which inhibited 50 percent of the sum total of amplitude of bladder contractions during five minutes)): 14.3 mg/kg
